Results as given in patent US9072750B2, “Use of prostaglandins F2Alpha and analogues for the healing of corneal and conjunctival lesions” (priority 2009, dated 2015).

Tests used:
Sprague-Dawley rats = test: Corneal scraping (deshepithelization) wound healing model in the rat, repeated instillations; format: in vivo
Protocol: Brief description of the protocol: 16 male Sprague-Dawley rats weighting 100 to 125 g were randomly assigned to 4 groups (4 rats per group (Gp)): Gp1, Phosphate buffer solution (PBS); Gp2, 0.02% benzalkonium chloride (BAK); Gp3, Xalatan®; Gp4, Latanoprost Emulsion. Following general and local anesthesia with ketamine/xylazine and topical Oxybucaïne, respectively, the upper part of the right eye cornea of each rat was scraped with a surgical scalpel following an application of 50 μl of 50% ethanol solution. The upper corneal and limbal epithelia were removed (at day D0). One drop of Tobrex was instilled immediately after the scraping. 2 and 5 hours post scraping one drop of the different test articles were applied onto the cornea of the right eye. These latter instillations were repeated every day for 4 days, and corneal evaluation with an in vivo confocal microscope (IVCM-HRT) was performed on day 4 after the last instillation. At the end of the experimental procedure (the total duration of the treatment is 5 days; from day D0 to D4), the animals were sacrificed and the eyes harvested to characterize the histological organisation of the treated cornea.

[1] = test system: human corneal epithelial (HCE) cells; test: Scraping wound closure assay on human corneal epithelial cell monolayer; format: cell-based; conditions: 24 h post scraping
Protocol: Brief description of the protocol: human corneal epithelial (HCE) cells (100 000 cells per well) were plated in 6-well plates and cultured until confluence. At confluence the cell monolayer was scraped with a yellow tip, the medium removed and incubated for 30 min with 1/10 dilutions of the different test articles (PBS (phosphate buffer solution), Xalatan® (aqueous solution of latanoprost at 0.005%), 0.02% BAK (benzalkonium chloride aqueous solution), and the Latanoprost Emulsion of the invention (with 0.005% latanoprost). Following the treatment, test article dilutions were removed and replaced by fresh culture medium. The scraping closure was assessed 2 and 24 h post treatment. Immunohistology of proliferation marker (Ki67) was also performed on cells cultured for 24 h post scraping.

in vivo confocal microscopy (IVCM) of superficial epithelium: scar tissue / hypereflectivity (Sprague-Dawley rats; rat, in vivo): scar tissue (hypereflectivity)
Substance: benzalkonium chloride [0.02% BAK solution]
corneal opacity / scarification of the cornea (Sprague-Dawley rats; day 4 after scraping, repeated instillations, right eye (FIG. 1)): scarification of the cornea was dramatic
closure of the cleft (scraping closure), cell survival and migration ([1]; 1/10 dilutions (FIGS. 7 & 8)): no or only little closure
% of wound closure ([1]; 30 min incubation with 1/10 dilutions (FIG. 9)): 8%
